Laboratory results published in patent publication US12496275B2, “Drug delivery methods and compositions” (Mayo Foundation for Medical Education and Research, priority 2019, dated 2025).
Values belong to the compound of their own block, whether it stands above or below them.

Columns and labels:
[1] = Analysis of encapsulation efficiency and drug loading efficiency of liposomes; assay type: physicochemical
Procedure: Analysis of encapsulation efficiency and drug loading efficiency: Liposome-encapsulation efficiency was measured by determining the amount of entrapped drugs. Briefly, the drug-loaded liposome sample was centrifuged in an amicon ultra centrifugal filter with a cut off size of 3 kD in order to separate the unentrapped drug. Total (Tdrug) and unentrapped drug (UEdrug) amounts were determined by measuring the absorbance at λx of respective drugs and comparing with corresponding standard curves. The encapsulated drug (Edrug) amount was calculated by subtracting the amount of unentrapped drugs (UEdrug) from total drug (Tdrug) amount. The drug-encapsulation efficiency (EE %) was expressed as the percentage of the encapsulated amount (Edrug) to the total amount (Tdrug). Drug loading efficiency was expressed as the percentage of encapsulated drug (Edrug) to the total lipid amount (Tlipid).

[2] = stated, no test described; cited from earlier work
[3] = test system: AsPC-1 cells; assay: In vitro gemcitabine sensitivity after Tet-inducible GIPC shRNA knockdown; assay type: cell-based, human; details: AsPC-1, 0.5 μM to 50 μM, 72 h
Procedure: (§1) Antibodies. Antibody for β-actin and horseradish peroxidase-conjugated secondary antibodies were purchased from Santa Cruz Biotechnology. Anti-GIPC antibody was purchased from Thermo Fisher, USA. shRNA Transfection. The plasmids for Tet-on-inducible GIPC1 shRNA were purchased from Dharmacon, US. Lentivirus stocks for GIPC1 shRNA were prepared and infected into the target cells following standard procedures. After infection, 2 μg/mL of puromycin was added to the medium for antibiotic selection. For the Tet-On-inducible GIPC shRNA, 0.4 μg/mL of doxycycline was used to induce shRNA expression in the stably infected cells.
(§2) In vitro cytotoxicity assay: Approximately, 5×10^3 cells were seeded in 384-well plates. After 18-24 h, cells were treated with increasing concentrations of gemcitabine and incubated for further 72 h. At the end of the incubation, cell viability was measured using CellTiter-Glo® 2.0 Assay (Promega) as per the manufacturer's protocol. Briefly, 24 μL of reagent was added to each well. The plate was incubated at RT for 10 minutes and luminescence signals were measured using Spectramax i3x. Percentage viability is calculated as follows: Viability (%)=100×(ATreated−ABlank)/(AUntreated−ABlank).

[4] = test system: PANC-1 cells; assay: as above; assay type: cell-based, human; details: PANC-1, 0.5 μM to 50 μM, 72 h
Procedure: as §1, §2

[5] = test system: AsPC-1 tumors; assay: Validation study, GIPC-1 knockdown plus gemcitabine, 5 mice per group; assay type: in vivo; details: AsPC-1, 5 mice per group, gemcitabine 10 mg/kg
Procedure: (§3) This strategy is currently being used in ‘Avatar’ models for the development of personalized therapy for various diseases. These ‘Avatar’ models are developed by implanting patient tumor samples in mice for subsequent drug efficacy studies. […] We used the same strategy in our SMT. All procedures were performed according to the approved guidelines. For the pancreatic cancer orthotopic model, 6-8-week-old female SCID mice were obtained from in-house breeding. Approximately, 1×10^6 luciferase-labeled Tet-inducible GIPC-1 shRNA vector-transfected AsPC-1 or PANC-1 cells, resuspended in 100 μL of PBS were injected into the pancreas of each mouse. After three days of cell inoculation, GIPC-1 knockdown was induced by adding doxycycline (0.5 mg/mL) in drinking water for the remainder of the study. […] After completion of the experiment, all tumor-bearing mice were euthanized with CO2; tumors were harvested, and tumor volumes and weights were measured.

[6] = test system: PANC-1 orthotopic xenografts; assay: Single mouse trial, GIPC-1 knockdown plus gemcitabine; assay type: in vivo, mice; details: PANC-1, single mouse, gemcitabine 10 mg/kg
Text: as §3, with “In vivo tumor growth inhibition experiment: A single mouse trial (SMT) was used to assess the in vivo tumor inhibition study in combination with GIPC-1 knockdown plus gemcitabine treatment. This” for “This”

[7] = test system: AsPC-1 orthotopic xenografts; assay: as above; assay type: in vivo, mice; details: AsPC-1, single mouse, gemcitabine 10 mg/kg
Text: as §3, with “In vivo tumor growth inhibition experiment: A single mouse trial (SMT) was used to assess the in vivo tumor inhibition study in combination with GIPC-1 knockdown plus gemcitabine treatment. This” for “This”

% of Total drug loading w.r.t Total lipid ([1]; EG00229): 2.2%
Encapsulation efficiencies (%) ([1]; EG00229): 30%
SMILES: NC(N)=NCCC[C@H](NC(=O)c1sccc1NS(=O)(=O)c1cccc2nsnc12)C(=O)O [EG00229]

SMILES: CCc1c2c(nc3ccc(OC(=O)N4CCC(N5CCCCC5)CC4)cc13)-c1cc3c(c(=O)n1C2)COC(=O)[C@]3(O)CC [IRT, irinotecan]
water solubility [2]: poorly water-soluble

SMILES: Nc1ccn([C@@H]2O[C@H](CO)[C@@H](O)C2(F)F)c(=O)n1 [gemcitabine]
growth inhibition by gemcitabine in GIPC-depleted vs control cells [3]: steeper growth inhibition curve
growth inhibition by gemcitabine in GIPC-depleted vs control cells ([3]; listed as Gemcitabine): sensitizes
growth inhibition by gemcitabine in GIPC-depleted vs control cells [4]: steeper growth inhibition curve
growth inhibition by gemcitabine in GIPC-depleted vs control cells ([4]; listed as Gemcitabine): sensitizes
response of GIPC-depleted tumors to gemcitabine (tumor volume, weight) [5]: increasing gemcitabine efficacy
response of GIPC-depleted tumors to gemcitabine (tumor volume, weight) ([5]; listed as Gemcitabine): more or less similar results
response of GIPC-depleted tumors to gemcitabine (tumor volume, weight) [6]: increasing gemcitabine efficacy
response of GIPC-depleted tumors to gemcitabine (tumor volume, weight) ([6]; listed as Gemcitabine): significantly higher response
response of GIPC-depleted tumors to gemcitabine (tumor volume, weight) [7]: increasing gemcitabine efficacy
response of GIPC-depleted tumors to gemcitabine (tumor volume, weight) ([7]; listed as Gemcitabine): significantly higher response

% of Total drug loading w.r.t Total lipid ([1]; vinorelbine): 3.5%
Encapsulation efficiencies (%) ([1]; vinorelbine): 23.7%
SMILES: CCC1=C[C@@H]2CN(C1)Cc1c([nH]c3ccccc13)[C@@](C(=O)OC)(c1cc3c(cc1OC)N(C)[C@H]1[C@@](O)(C(=O)OC)[C@H](OC(C)=O)[C@]4(CC)C=CCN5CC[C@]31[C@@H]54)C2 [vinorelbine]
water solubility [2]: highly water soluble

% of Total drug loading w.r.t Total lipid ([1]; everolimus): 7.29%
Encapsulation efficiencies (%) ([1]; everolimus): ~100%
SMILES: CO[C@H]1C[C@@H]2CC[C@@H](C)[C@@](O)(O2)C(=O)C(=O)N2CCCC[C@H]2C(=O)O[C@H]([C@H](C)C[C@@H]2CC[C@@H](OCCO)[C@H](OC)C2)CC(=O)[C@H](C)/C=C(\C)[C@@H](O)[C@@H](OC)C(=O)[C@H](C)C[C@H](C)/C=C/C=C/C=C/1C [everolimus]
water solubility [2]: water insoluble
